Experimental data taken from article PMC7413254 (Nature Communications, 2020).
Where two headings read alike, the source gives them in different places.

Columns and labels:
non-expressing oocytes = experiment: cells; type: cell-based, Xenopus laevis; settings: Xenopus laevis, total [3H]CQ transport; for inhibition at 500 µM: [test solute] = 0.5 mM; for inhibition at 1000 µM: [test solute] = 1 mM; for inhibition at 2000 µM: [test solute] = 2 mM
Outline: (§1)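 Using pH 5.5 ND96 at 27.5 °C, uptake is followed for 1.5 h, stopped with ice-cold buffer, and quantified as accumulated radioactivity per oocyte after SDS lysis.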

PfCRT^3D7 = PfCRT^3D7 (Plasmodium falciparum, UniProt Q8IBZ9); experiment: cell-based; type: cell-based; settings: total [3H]CQ transport; for inhibition at 500 µM: [test solute] = 0.5 mM; for inhibition at 1000 µM: [test solute] = 1 mM; for inhibition at 2000 µM: [test solute] = 2 mM
Outline: as §1

PfCRT^Dd2 = PfCRT^Dd2 (Plasmodium falciparum, UniProt Q9N623, A220S/I356T/K76T/M74I/N326S/N75E/Q271E/R371I); experiment: [3H]CQ uptake into Xenopus oocytes, cis-inhibition by unlabelled solute; type: cell-based
Outline: as §1

PfCRT^Ecu1110 = PfCRT^Ecu1110 (Plasmodium falciparum, UniProt Q9N623, A220S/I356L/K76T/N326D); experiment: as above; type: cell-based
Outline: as §1

[1] = Oocyte, mean ± SEM, SEM, read-out: Uptake of [3H]CQ (% PfCRTDd2 control), cis-inhibition, non-expressing oocytes
[2] = non-expressing oocytes, normalised to the oocyte type control, read-out: Uptake of [3H]CQ (% non-expressing oocyte control), cis-inhibition
[3] = PfCRT3D7 oocytes, normalised to the oocyte type control, read-out: Uptake of [3H]CQ (% PfCRT3D7 control), cis-inhibition
[4] = mean ± SEM, SEM, read-out: Uptake of [3H]CQ (% PfCRTDd2 control), cis-inhibition, PfCRT3D7
[5] = read-out: PfCRT-mediated [3H]CQ transport, cis-inhibition (% PfCRTDd2 control)
[6] = read-out: Uptake of [3H]CQ (% PfCRTDd2 control), cis-inhibition
[7] = read-out: Uptake of [3H]CQ (% PfCRTDd2 control), cis-inhibition, PfCRTDd2, SEM
[8] = read-out: [3H]CQ transport (% PfCRTDd2 control), cis-inhibition, PfCRTDd2, SEM
[9] = read-out: PfCRT-mediated [3H]CQ transport, cis-inhibition (% PfCRTEcu1110 control)
[10] = read-out: Uptake of [3H]CQ (% PfCRTDd2 control), cis-inhibition, PfCRTEcu1110, SEM
[11] = read-out: Uptake of [3H]CQ (% PfCRTEcu1110 control), cis-inhibition

PfCRT^3D7, sequence (Q8IBZ9 59-398): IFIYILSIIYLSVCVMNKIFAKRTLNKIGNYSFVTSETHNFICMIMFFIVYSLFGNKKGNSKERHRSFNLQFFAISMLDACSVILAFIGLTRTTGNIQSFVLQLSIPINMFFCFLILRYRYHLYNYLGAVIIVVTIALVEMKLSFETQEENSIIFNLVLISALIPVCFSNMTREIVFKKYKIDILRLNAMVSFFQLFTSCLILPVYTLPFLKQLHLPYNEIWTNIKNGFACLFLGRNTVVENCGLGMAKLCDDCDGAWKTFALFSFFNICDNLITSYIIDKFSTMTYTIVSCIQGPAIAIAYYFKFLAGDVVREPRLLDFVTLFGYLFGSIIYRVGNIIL
PfCRT^Dd2, sequence (Q9N623 whole entry A220S/I356T/K76T/M74I/N326S/N75E/Q271E/R371I): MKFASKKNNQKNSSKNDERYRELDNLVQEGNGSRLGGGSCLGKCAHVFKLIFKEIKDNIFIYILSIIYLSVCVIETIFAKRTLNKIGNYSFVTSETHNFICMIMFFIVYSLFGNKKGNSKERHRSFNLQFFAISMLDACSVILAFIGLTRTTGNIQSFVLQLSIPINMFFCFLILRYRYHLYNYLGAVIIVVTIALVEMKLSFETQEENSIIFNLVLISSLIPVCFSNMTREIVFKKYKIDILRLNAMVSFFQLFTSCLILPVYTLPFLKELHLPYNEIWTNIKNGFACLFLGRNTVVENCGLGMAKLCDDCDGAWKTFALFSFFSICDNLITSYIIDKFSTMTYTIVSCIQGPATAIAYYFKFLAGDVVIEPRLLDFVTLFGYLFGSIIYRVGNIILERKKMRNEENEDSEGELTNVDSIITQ
PfCRT^Ecu1110, sequence (Q9N623 whole entry A220S/I356L/K76T/N326D): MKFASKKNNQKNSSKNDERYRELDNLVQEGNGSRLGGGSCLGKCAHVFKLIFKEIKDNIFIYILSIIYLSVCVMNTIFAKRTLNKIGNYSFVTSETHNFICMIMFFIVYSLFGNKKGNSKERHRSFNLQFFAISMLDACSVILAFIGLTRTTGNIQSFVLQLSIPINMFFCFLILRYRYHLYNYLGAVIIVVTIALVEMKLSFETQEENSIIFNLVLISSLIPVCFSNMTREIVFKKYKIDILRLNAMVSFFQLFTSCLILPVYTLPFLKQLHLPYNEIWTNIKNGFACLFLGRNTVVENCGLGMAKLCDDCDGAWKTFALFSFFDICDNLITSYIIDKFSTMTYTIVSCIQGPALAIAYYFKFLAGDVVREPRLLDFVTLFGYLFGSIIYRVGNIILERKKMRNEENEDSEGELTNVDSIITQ

Q: Which results are given for `CC(C)[C@H](N)C(=O)O` [L-valine]?
A: inhibition at 500 µM (non-expressing oocytes; [1]): 2.7 ± 0.05%; inhibition at 1000 µM (non-expressing oocytes; [1]): 2.5 ± 0.04%; inhibition at 2000 µM (non-expressing oocytes; [1]): 2.8 ± 0.07%; inhibition at 500 µM (non-expressing oocytes; [2]): 100 ± 4.8%; inhibition at 1000 µM (non-expressing oocytes; [2]): 101 ± 6.2%; inhibition at 2000 µM (non-expressing oocytes; [2]): 99 ± 6.2%; inhibition at 500 µM (PfCRT^3D7; [3]): 99 ± 3.6%; inhibition at 1000 µM (PfCRT^3D7; [3]): 99 ± 3.9%; inhibition at 2000 µM (PfCRT^3D7; [3]): 100 ± 5.5%; inhibition at 500 µM (PfCRT^3D7; [4]): 3.1 ± 0.07%; inhibition at 1000 µM (PfCRT^3D7; [4]): 3.4 ± 0.01%; inhibition at 2000 µM (PfCRT^3D7; [4]): 3.4 ± 0.04%; inhibition at 500 µM (PfCRT^Dd2; [5]): 98 ± 3.6%; inhibition at 1000 µM (PfCRT^Dd2; [5]): 98 ± 4.6%; inhibition at 2000 µM (PfCRT^Dd2; [5]): 93 ± 4.1%; inhibition at 500 µM (PfCRT^Dd2; [6]): 100 ± 2.6%; inhibition at 1000 µM (PfCRT^Dd2; [6]): 100 ± 2.2%; inhibition at 500 µM (PfCRT^Dd2; [7]): 100 ± 2.6%; inhibition at 1000 µM (PfCRT^Dd2; [7]): 100 ± 2.2%; inhibition at 2000 µM (PfCRT^Dd2; [7]): 95 ± 1.4%; inhibition at 500 µM (PfCRT^Dd2; [8]): 98 ± 3.6%; inhibition at 1000 µM (PfCRT^Dd2; [8]): 98 ± 4.6%; inhibition at 500 µM (PfCRT^Ecu1110; [9]): 98 ± 2.5%; inhibition at 1000 µM (PfCRT^Ecu1110; [9]): 95 ± 2.6%; inhibition at 2000 µM (PfCRT^Ecu1110; [9]): 94 ± 2.5%; inhibition at 500 µM (PfCRT^Ecu1110; [10]): 33 ± 1%; inhibition at 1000 µM (PfCRT^Ecu1110; [10]): 32 ± 1.3%; inhibition at 2000 µM (PfCRT^Ecu1110; [10]): 31 ± 1.6%; inhibition at 500 µM (PfCRT^Ecu1110; [11]): 100 ± 1.5%; inhibition at 1000 µM (PfCRT^Ecu1110; [11]): 97 ± 1.7%; inhibition at 2000 µM (PfCRT^Ecu1110; [11]): 96 ± 1.5%
